Measured values published in PubChem BioAssay AID1963436 (Molecular Pharmacology Branch, DTP, NCI, 2024).

Test system: OVCAR-5 complex spheroid (HUVEC/MSC), viability % T/C
Experiment: Anticancer human tumor OVCAR-5 cell line growth inhibition [Asc];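 further: spheroids exposed to agents for 7 days before readout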;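 on viability, T/C: 100% = DMSO vehicle-treated wells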
Conditions: for IC50: curve of first compound; for viability, T/C: stronger effect = lower value
How it was run: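 Complex spheroids combining tumor cells with HUVEC endothelial cells and human MSCs, at 37 degrees C, 5% CO2; agents tested alone or combined, half-log dilutions from at or near clinical Cmax, or 10 microM if Cmax unknown.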

[1] = second compound 0.1 µM, first compound 0.0316 µM
[2] = second compound 0.1 µM, first compound 0.1 µM
[3] = second compound 0.1 µM, first compound 0.316 µM
[4] = second compound 0.1 µM, first compound 1 µM
[5] = second compound 0.316 µM, first compound 0.0316 µM
[6] = second compound 0.316 µM, first compound 0.1 µM
[7] = second compound 0.316 µM, first compound 0.316 µM
[8] = second compound 0.316 µM, first compound 1 µM
[9] = second compound 1 µM, first compound 0.0316 µM
[10] = second compound 1 µM, first compound 0.1 µM
[11] = second compound 1 µM, first compound 0.316 µM
[12] = second compound 1 µM, first compound 1 µM

Cc1nc(N2CCC3(CC2)COC(C)C3N)c(CO)nc1Sc1ccnc(N)c1Cl (stereo not given) + CNC(C)C(=O)NC1CN(S(=O)(=O)c2cccc(S(=O)(=O)N3CCC4CCC(C(=O)NC(c5ccccc5)c5ccccc5)N4C(=O)C(NC(=O)C(C)NC)C3)c2)CCC2CCC(C(=O)NC(c3ccccc3)c3ccccc3)N2C1=O
IC50 (second compound 0.01 µM): > 3000 nM
IC50 (second compound 0.0316 µM): > 3000 nM
IC50 (second compound 0.1 µM): > 3000 nM
IC50 (second compound 0.316 µM): > 3000 nM
IC50 (second compound 1 µM): 2510 nM
viability, T/C (second compound 0.01 µM, first compound 0.00949 µM): 98.5%
viability, T/C (second compound 0.01 µM, first compound 0.03 µM): 91%
viability, T/C (second compound 0.01 µM, first compound 0.0949 µM): 85%
viability, T/C (second compound 0.01 µM, first compound 0.3 µM): 77.7%
viability, T/C (second compound 0.01 µM, first compound 0.949 µM): 68.3%
viability, T/C (second compound 0.01 µM, first compound 3 µM): 63.8%
viability, T/C (second compound 0.0316 µM, first compound 0.00949 µM): 84.5%
viability, T/C (second compound 0.0316 µM, first compound 0.03 µM): 92.3%
viability, T/C (second compound 0.0316 µM, first compound 0.0949 µM): 76.1%
viability, T/C (second compound 0.0316 µM, first compound 0.3 µM): 66.7%
viability, T/C (second compound 0.0316 µM, first compound 0.949 µM): 63.2%
viability, T/C (second compound 0.0316 µM, first compound 3 µM): 56.2%
viability, T/C (second compound 0.1 µM, first compound 0.00949 µM): 84%
viability, T/C (second compound 0.1 µM, first compound 0.03 µM): 82.3%
viability, T/C (second compound 0.1 µM, first compound 0.0949 µM): 76.7%
viability, T/C (second compound 0.1 µM, first compound 0.3 µM): 61.4%
viability, T/C (second compound 0.1 µM, first compound 0.949 µM): 58.8%
viability, T/C (second compound 0.1 µM, first compound 3 µM): 52.1%
viability, T/C (second compound 0.316 µM, first compound 0.00949 µM): 82.7%
viability, T/C (second compound 0.316 µM, first compound 0.03 µM): 74.6%
viability, T/C (second compound 0.316 µM, first compound 0.0949 µM): 64.4%
viability, T/C (second compound 0.316 µM, first compound 0.3 µM): 62.1%
viability, T/C (second compound 0.316 µM, first compound 0.949 µM): 51.9%
viability, T/C (second compound 0.316 µM, first compound 3 µM): 55.2%
viability, T/C (second compound 1 µM, first compound 0.00949 µM): 82.7%
viability, T/C (second compound 1 µM, first compound 0.03 µM): 80.8%
viability, T/C (second compound 1 µM, first compound 0.0949 µM): 71.7%
viability, T/C (second compound 1 µM, first compound 0.3 µM): 64.4%
viability, T/C (second compound 1 µM, first compound 0.949 µM): 60.2%
viability, T/C (second compound 1 µM, first compound 3 µM): 47.7%

O=C(c1cc(Cc2n[nH]c(=O)c3ccccc23)ccc1F)N1CCN(C(=O)C2CC2)CC1 + CNC(C)C(=O)NC1CN(S(=O)(=O)c2cccc(S(=O)(=O)N3CCC4CCC(C(=O)NC(c5ccccc5)c5ccccc5)N4C(=O)C(NC(=O)C(C)NC)C3)c2)CCC2CCC(C(=O)NC(c3ccccc3)c3ccccc3)N2C1=O
IC50 (second compound 0.01 µM): > 10000 nM
IC50 (second compound 0.0316 µM): > 10000 nM
IC50 (second compound 0.1 µM): > 10000 nM
IC50 (second compound 0.316 µM): > 10000 nM
IC50 (second compound 1 µM): > 10000 nM
viability, T/C (second compound 0.01 µM, first compound 0.0316 µM): 97.3%
viability, T/C (second compound 0.01 µM, first compound 0.1 µM): 95.8%
viability, T/C (second compound 0.01 µM, first compound 0.316 µM): 87.1%
viability, T/C (second compound 0.01 µM, first compound 1 µM): 96.2%
viability, T/C (second compound 0.01 µM, first compound 3.16 µM): 80.5%
viability, T/C (second compound 0.01 µM, first compound 10 µM): 70.3%
viability, T/C (second compound 0.0316 µM, first compound 0.0316 µM): 81.4%
viability, T/C (second compound 0.0316 µM, first compound 0.1 µM): 88.3%
viability, T/C (second compound 0.0316 µM, first compound 0.316 µM): 81.7%
viability, T/C (second compound 0.0316 µM, first compound 1 µM): 74.6%
viability, T/C (second compound 0.0316 µM, first compound 3.16 µM): 77.9%
viability, T/C (second compound 0.0316 µM, first compound 10 µM): 67.9%
viability, T/C [1]: 84.9%
viability, T/C [2]: 95.6%
viability, T/C [3]: 77.9%
viability, T/C [4]: 74.8%
viability, T/C (second compound 0.1 µM, first compound 3.16 µM): 75.1%
viability, T/C (second compound 0.1 µM, first compound 10 µM): 55.5%
viability, T/C [5]: 77.4%
viability, T/C [6]: 75.5%
viability, T/C [7]: 80.7%
viability, T/C [8]: 75.5%
viability, T/C (second compound 0.316 µM, first compound 3.16 µM): 67.2%
viability, T/C (second compound 0.316 µM, first compound 10 µM): 62%
viability, T/C [9]: 83.5%
viability, T/C [10]: 76.1%
viability, T/C [11]: 88.9%
viability, T/C [12]: 73.8%
viability, T/C (second compound 1 µM, first compound 3.16 µM): 65.3%
viability, T/C (second compound 1 µM, first compound 10 µM): 55.9%

O=C(c1ccc(F)c(F)c1Nc1ccc(I)cc1F)N1CC(O)([C@@H]2CCCCN2)C1 + Cc1c(S(C)(=O)=O)c(-c2cc(F)cc(N3CCN(c4ccc(NS(=O)(=O)c5ccc(NC(CCN6CCC(C(=O)OCCCP(=O)(O)O)CC6)CSc6ccccc6)c(S(=O)(=O)C(F)(F)F)c5)cc4)CC3)c2)c(-c2ccc(Cl)cc2)n1C(C)C
IC50 (second compound 0.1 µM): 150 nM
IC50 (second compound 0.316 µM): 82.6 nM
IC50 (second compound 1 µM): 78.5 nM
IC50 (second compound 3.16 µM): 59 nM
IC50 (second compound 10 µM): 75.7 nM
viability, T/C (second compound 0.1 µM, first compound 0.00316 µM): 104%
viability, T/C (second compound 0.1 µM, first compound 0.01 µM): 102%
viability, T/C [1]: 71.8%
viability, T/C [2]: 54.8%
viability, T/C [3]: 41.9%
viability, T/C [4]: 17.6%
viability, T/C (second compound 0.316 µM, first compound 0.00316 µM): 93.7%
viability, T/C (second compound 0.316 µM, first compound 0.01 µM): 97.3%
viability, T/C [5]: 66.7%
viability, T/C [6]: 42.1%
viability, T/C [7]: 32.2%
viability, T/C [8]: 9.34%
viability, T/C (second compound 1 µM, first compound 0.00316 µM): 90.7%
viability, T/C (second compound 1 µM, first compound 0.01 µM): 95%
viability, T/C [9]: 74.5%
viability, T/C [10]: 38.3%
viability, T/C [11]: 26.9%
viability, T/C [12]: 4.46%
viability, T/C (second compound 3.16 µM, first compound 0.00316 µM): 81.2%
viability, T/C (second compound 3.16 µM, first compound 0.01 µM): 90.4%
viability, T/C (second compound 3.16 µM, first compound 0.0316 µM): 68.1%
viability, T/C (second compound 3.16 µM, first compound 0.1 µM): 31.6%
viability, T/C (second compound 3.16 µM, first compound 0.316 µM): 18.6%
viability, T/C (second compound 3.16 µM, first compound 1 µM): 1.8%
viability, T/C (second compound 10 µM, first compound 0.00316 µM): 115%
viability, T/C (second compound 10 µM, first compound 0.01 µM): 112%
viability, T/C (second compound 10 µM, first compound 0.0316 µM): 78.8%
viability, T/C (second compound 10 µM, first compound 0.1 µM): 41.1%
viability, T/C (second compound 10 µM, first compound 0.316 µM): 12.6%
viability, T/C (second compound 10 µM, first compound 1 µM): 2.47%
